Data reported in paper PMC10304470, “Characterization of the Antimicrobial Activities of Trichoplusia ni Cecropin A as a High-Potency Therapeutic against Colistin-Resistant Escherichia coli” (Pharmaceutics, 2023).
Peptide text beside a SMILES is read from it.

Columns and labels:
[1] = system: ColREC 1557-stimulated RAW 264.7 cells; assay: Nitrite (NO) production in ColREC 1557-infected macrophages; type: cell-based, mouse; details: 1.3 μM peptide, 1 h before ColREC 1557 infection
Procedure: To investigate the inflammatory response induced by ColREC 1557, RAW 264.7 cells (1 × 10^5 cells/well) were treated with various concentrations of peptide (0.6 to 10 μM) 1 h before bacterial infection. The control was an untreated cell. ColREC 1557 that had been cultured in LB broth overnight and sub-cultured to the exponential phase were harvested, suspended in DMEM, and used to infect RAW 264.7 cells to a final concentration of 1 × 10^5 cells/well. Subsequent nitrite and IL-6 detection was performed as described in Section 2.15.

ColREC 12 = assay: Biofilm inhibition assay, crystal violet; type: cell-based, Escherichia coli; details: ColREC 12, 2 μM peptide, 16 h
Procedure: To quantify the biofilm inhibitory activity of each peptide, ColREC 1557 and ColREC 12 were cultured in Luria–Bertani (LB) broth overnight and then sub-cultured in MH broth. Different concentrations of peptide (from 1 μM to 64 μM) were prepared in 96-well plates using MH broth (containing 0.2% glucose) and incubated with bacteria (2 × 10^5 cells/mL) at 37 °C for 16 h. After incubation, the culture medium was removed and methanol was added as a fixative for 15 min. The completely dried plates were stained for 2 h by adding 100 μL of staining solution (0.1% (w/v) crystal violet in 0.25% (v/v) acetic acid). The residual staining solution was gently rinsed off three times using distilled water. Subsequently, 90% ethanol was used to dissolve the dye, and absorbance was measured at 600 nm. The untreated bacterial group was used as a control to compare biofilm production rates.

[2] = system: LPS-stimulated RAW 264.7 cells; assay: Nitrite (NO) production in LPS-stimulated macrophages, Griess; type: cell-based, mouse; details: 5 μM peptide, 1 h pretreatment, 20 ng/mL LPS, 16 h
Procedure: (§1) Murine macrophage RAW 264.7 cells were used to measure the anti-inflammatory activities of peptides. Culture plates (96-well) were seeded at a density of 1 × 10^5 cells/well and stimulated with 20 ng/mL LPS (O111:B4; Sigma-Aldrich) for 16 h after 1 h pretreatment with each concentration of peptide (0.6 to 10 μM). The control is an untreated cell. The culture supernatant was added to an equal volume of Griess reagent (Sigma-Aldrich), and the absorbance was measured at 540 nm. Nitrite production was quantified using a standard curve constructed using NaNO2.

[3] = system: Acinetobacter baumannii (KCCM 40203); type: cell-based; details: KCCM 40203, 16 h
Excerpt: (§2) E. coli (KCTC 1682) was obtained from the Korean Collection for Type Cultures (KCTC, Jeongeup, Republic of Korea), and Acinetobacter baumannii (KCCM 40203) and Pseudomonas aeruginosa (KCCM 11328) from the Korea Culture Center of Microorganisms (KCCM, Seoul, Republic of Korea). Klebsiella pneumoniae (NCCP 16054), colistin-resistant E. coli NMA 1557 (ColREC 1557), NMS 12 (ColREC 12), and colistin-resistant A. baumannii NMS 1915 (ColRAB 1915), as well as colistin-resistant K. pneumoniae NMS 139 (ColRKP 139), were obtained from the National Institute of Health Multidrug Resistant Bacteria Specialized Pathogen Resources Bank (Osong, Republic of Korea).
(§3) The antibacterial abilities of the peptides (T. ni cecropin, cecropin A, polymyxin B, colistin, and melittin) were determined using the broth dilution method as previously reported. The peptides dissolved at 10 mg/mL in deionized water were serially diluted from 64 μM to 0.5 μM in 96-well plates using Mueller–Hinton (MH) broth, and bacteria cultured to exponential growth were added at 2 × 10^5 cells/mL. The group of bacteria that grew untreated in the broth was set as the positive control, and the uninoculated broth as the negative control. Dissolved peptides are colorless and equal to the OD value of the medium only. After 16 h incubation at 37 °C, the absorbance at 600 nm was measured using a SpectraMAX microplate reader (Molecular Devices, San Jose, CA, USA).

[4] = system: Pseudomonas aeruginosa (KCCM 11328); type: cell-based; details: KCCM 11328, 16 h
Excerpt: as §2, §3

[5] = system: Klebsiella pneumoniae (NCCP 16054); type: cell-based; details: NCCP 16054, 16 h
Excerpt: as §2, §3

[6] = system: LPS-stimulated RAW 264.7 cells; assay: IL-6 secretion in LPS-stimulated macrophages, ELISA; type: cell-based, mouse; details: 5 μM peptide, 1 h pretreatment, 20 ng/mL LPS, 16 h
Procedure: as §1
Interleukin-6 (IL-6)-specific enzyme-linked immunosorbent assays (ELISA; R&D Systems, Minneapolis, MN, USA) were performed according to the method specified by the manufacturer. Briefly, cell culture supernatants were added to immune plates treated with the capture antibody, followed by the detection antibody and streptavidin-horseradish peroxidase. For each step, the plates were washed twice with PBS containing 0.05% Tween 20. The plates were incubated with tetramethylbenzidine substrate (Invitrogen, Carlsbad, CA, USA), and the reaction was stopped with 2 N H2SO4 to measure absorbance at 450 nm. A standard graph of each marker was plotted and quantified.

[7] = system: colistin-resistant K. pneumoniae NMS 139 (ColRKP 139); type: cell-based, Klebsiella pneumoniae; details: MH broth, 2 × 10^5 cells/mL, 16 h, 37 °C, OD600, >95% killing
Excerpt: as §2, §3

[8] = system: sheep red blood cells (sRBCs); assay: Hemolysis; type: cell-based; details: 100 μM peptide, 1 h, 37 °C
Procedure: Sheep red blood cells (sRBCs; KisanBio, Seoul, Republic of Korea) were added to three volumes of phosphate-buffered saline (PBS; 35 mM phosphate buffer containing 150 mM NaCl, pH 7.4) and centrifuged five times at 4 °C, 1000× g for 5 min, followed by a final suspension in PBS at 4% (w/v). Peptides serially diluted from 100 μM to 3.1 μM in PBS at 100 μL in a 96-well plate were prepared, and an equal volume of blood solution was added. After incubation at 37 °C for 1 h, the plates were centrifuged for 5 min at 4 °C, 1000× g. The absorbance of the supernatant was measured at 405 nm. The 100% hemolysis control was 0.1% Triton-X 100 added to the blood solution; the negative control was blood solution added to PBS.

CC[C@H](C)CCCCC(=O)N[C@@H](CCN)C(=O)N[C@H](C(=O)N[C@@H](CCN)C(=O)N[C@H]1CCNC(=O)[C@H]([C@@H](C)O)NC(=O)[C@H](CCN)NC(=O)[C@H](CCN)NC(=O)[C@H](CC(C)C)NC(=O)[C@@H](CC(C)C)NC(=O)[C@H](CCN)NC1=O)[C@@H](C)O [colistin] (HELM PEPTIDE1{[CC[C@H](C)CCCCC(=O)[*:2]].[Dab].T.[Dab].[Dab].[Dab].[dL].L.[Dab].[Dab].T}$PEPTIDE1,PEPTIDE1,5:R3-11:R2$$$V2.0; N-terminus assumed; bridges inferred)
inhibition of NO [1]: 24.7%
inhibition of biofilm formation (ColREC 12): 28.9%
inhibition of NO [2]: over 90%
Minimal Inhibitory Concentration [3]: 0.25 µM
Minimal Inhibitory Concentration [4]: 1 µM
Minimal Inhibitory Concentration [5]: 0.25 µM
inhibition of IL-6 secretion [6]: over 90%
Minimal Inhibitory Concentration [7]: >64 µM
hemolytic activity [8]: no hemolytic activity
